# Test results as given in patent US20110027185A1, “Methods of Screening for Anti-Angiogenic Compounds” (priority 2007, published 2011).
# pIC50: −log10 of the molar value.
# How the values were obtained:
# [1] = test system: Lewis lung adenocarcinoma; settings: Lewis lung adenocarcinoma model; cited from earlier work
# [2] = test system: WiDr cell lines of human colon cancer; settings: cited from earlier work
# capillary tube formation = settings: rat aorta matrix culture model, cited from earlier work
# [3] = test system: WiDr cells induced angiogenesis; settings: 1.8 mg/kg intraperitoneal injection, mouse dorsal air sac model; cited from earlier work
# [4] = test system: protein synthesis in the cultured rat cells; settings: cited from earlier work
# HUVEC [5] = experiment: HUVEC cord formation assay on matrigel (NCI); type: cell-based, human; settings: Homo sapiens, 24 h
# Protocol: Angiogenesis assays were provided by the NCI, details of the assay protocols are given below. In each assays TNP-470 and paclitaxel (Taxol®) were used as reference compounds. Matrigel (60 μL of 10 mg/mL; Collaborative Lab #35423) was placed in each well of an ice-cold 96-well plate. The plate was allowed to sit at room temperature for 15 minutes then it was incubated at 37° C. for 30 minutes to permit the matrigel to polymerize. In the mean time, HUVEC were prepared in EGM-2 (Clonetic #CC3162) at a concentration of 2×10^5 cells/mL. […] The cells (500 μL) and the drug at 2 times concentration (500 μL) were mixed and 200 μL of this suspension was placed in duplicate on the polymerized matrigel. After 24 h incubation, triplicate pictures were taken for each concentration using a Bioquant Image Analysis system. Drug effect (IC50) is assessed compared to untreated controls by measuring the length of cords formed and number of junctions.
# HUVEC [6] = experiment: HUVEC cell migration (chemotaxis) assay, Boyden chamber (NCI); type: cell-based, human; settings: Homo sapiens, 5 h
# Protocol: Angiogenesis assays were provided by the NCI, details of the assay protocols are given below. In each assays TNP-470 and paclitaxel (Taxol®) were used as reference compounds. Migration was assessed using the 48-well Boyden chamber and 8 μm pore size collagen-coated (10 μg/mL rat tail collagen; Collaborative Laboratories) polycarbonate filters (Osmonics, Inc.). The bottom chamber wells received 27-29 μL of DMEM medium alone (baseline) or medium containing chemo-attractant (bFGF, VEGF or Swiss 3T3 cell conditioned medium). The top chambers received 45 μL of HUVEC cell suspension (1×10^6 cells/mL) prepared in DMEM+1% BSA with or without test compound. After 5 h incubation at 37° C., the membrane was rinsed in PBS, fixed and stained in Diff-Quick solutions. The filter was placed on a glass slide with the migrated cells facing down and cells on top were removed using a Kimwipe. The testing was performed in 4-6 replicates and five fields were counted from each well. Negative, unstimulated, control values were subtracted from stimulated control and drug treated values and data was plotted as mean migrated cell±S.D. The IC50 was calculated from the plotted data.
# HUVEC [7] = experiment: HUVEC growth inhibition assay (NCI); type: cell-based, human; settings: Homo sapiens, 72 h, crystal violet
# Protocol: Angiogenesis assays were provided by the NCI, details of the assay protocols are given below. In each assays TNP-470 and paclitaxel (Taxol®) were used as reference compounds. HUVEC (1.5×10^3) were plated in a 96-well plate in 100 μL of EBM-2 (Clonetic #CC3162). […] On day 0, one plate was stained with 0.5% crystal violet in 20% methanol for 10 minutes, rinsed with water, and air-dried. The remaining plates were incubated for 72 h at 37° C. After 72 h, plates were stained with 0.5% crystal violet in 20% methanol, rinsed with water and air-dried. The stain was eluted with 1:1 solution of ethanol:0.1 M sodium citrate (including day 0 plate), and absorbance was measured at 540 nm with an ELISA reader (Dynatech Laboratories). Day 0 absorbance was subtracted from the 72 h plates and data was plotted as percentage of control proliferation (vehicle treated cells).
# B16-BL6 melanoma cells = settings: same dosage (1.8 mg/kg); cited from earlier work
# [8] = test system: VEGFxxx and VEGFxxxb expression in RPE cells; experiment: VEGF isoform ELISA of media of treated RPE cells; type: cell-based; settings: 0.5 μM or 5 μM, 72 hours
# Protocol: Media was sampled after 72 hours treatment, and assessed for total VEGF and VEGFxxxb expression (see Bates et al., 2002, Woolard et al., 2004 and Varey et al., 2008 for methods).
# [9] = test system: PC-3 cell lines of human prostate cancer; settings: cited from earlier work
# FBP21 = target: T1, FBP21 (Homo sapiens, UniProt O75554); experiment: Phage display biopanning with biotinylated bait, Human Colon Tumour Library; type: binding; settings: SDS and E. coli elution
# T1 construct: encode 99 amino acids in frame with the phage coat protein of which a segment of 83 residues share 100% homology with FBP21; purchased Novagen; host or cells: T7 phage amplified in E. coli BLT5403
# T1 sequence (O75554 with tags, fused parts or gaps): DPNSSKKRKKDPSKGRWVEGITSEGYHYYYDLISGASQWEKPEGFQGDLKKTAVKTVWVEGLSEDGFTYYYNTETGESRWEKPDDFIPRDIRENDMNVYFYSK
# Protocol: Streptavidin wells were incubated with 1 μM biotinylated probe at 4° C. overnight to prepare the wells for biopanning. After incubation, unbound biotinylated probe was removed from the well by washing with phosphate buffered saline (PBS). Wells were then blocked with blocking solution (3% skimmed milk in PBS) for at least one hour at room temperature. Blocked wells were then briefly washed with PBS and were ready for biopanning use. […] In the first round of biopanning, 0.15 mL of amplified phage library was added to an empty streptavidin coated well and incubated at room temperature for at least 1 hour. This step was included to deselect any phage displaying streptavidin binding proteins. After incubation, the phage were removed from the well and mixed with 50 μL 4× blocking solution (12% skimmed milk in PBS) and incubated at room temperature for at least one hour. 0.125 mL of blocked phage library was added to each pre-prepared biotinylated well and incubated at room temperature for at least one hour. […] After incubation, unbound phage were removed from the well with wash solution. The wash solution was varied depending on the round of biopanning. For first round of biopanning PBS1 was used. For subsequent rounds the stringency of the wash was increased by using sequentially PBS2, PBS3 and PBS4 (see Table I). […]
# [10] = test system: human umbilical vein endothelial cells (HUVEC); settings: cited from earlier work
structure (smiles),measurement,setting,value
C[C@@H]1C[C@H](C)C[C@H](C)[C@@H](O)CC(=O)O[C@H]([C@@H]2CCC[C@H]2C(=O)O)C/C=C/C=C(/C#N)[C@H](O)[C@@H](C)C1 [Borrelidin],propagation of metastatic nodules after removal of the primary tumour,[1],weakly inhibited
same,effect against WiDr cell lines,[2],effective against WiDr cell lines
same,"inhibition of capillary tube formation, IC50",capillary tube formation,0.4 ng/mL
same,pIC50,"capillary tube formation; read-out: inhibition of capillary tube formation, IC50",9.10
same,increment of vascular volume induced by WiDr cells,[3],significantly reduce the increment of vascular volume
same,anti-angiogenesis IC50 lower than IC50 for inhibition of protein synthesis,[4],50 fold
same,"inhibition of protein synthesis, IC50",[4]; cultured rat cells,20 ng/mL
same,pIC50,HUVEC [5],7.33
same,pIC50,HUVEC [6],7.20
same,pIC50,HUVEC [7],8.49
same,formation of spontaneous lung metastases of B16-BL6 melanoma cells,B16-BL6 melanoma cells,effective for the inhibition of the formation of spontaneous lung metastases
same,VEGFxxx expression (ELISA),[8],significant downregulation
same,VEGFxxxb expression (ELISA),[8],significant upregulation
same,effect against PC-3 cell lines,[9],also against PC-3 cell lines
same,identification of FBP21 fragment by biopanning (binding),FBP21,consistently identified an FBP21 fragment
same,"anti-proliferative activity towards HUVEC, IC50",[10]; cell growth assay,6 ng/mL
same,HUVEC anti-proliferative IC50 weaker than anti-angiogenesis activity,[10]; measured in the same medium,15 fold
